Data: the supplement of paper PMC10307832

Assays:
Test in all cases: relative viability (nuclei count vs DMSO), 5 days (fraction); higher = more cells survive
[1] = compound: C1CNCCC1C2=CC(=NN2)C3=CC=NC=C3 + CS(=O)(=O)N1CCN(Cc2cc3nc(-c4cccc5[nH]ncc45)nc(N4CCOCC4)c3s2)CC1 [Pictilisib] (partner 1 µM)
In short: (§1)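 Relative viability divides the nuclei count in treated wells by that in vehicle wells. Lung cancer cell lines were seeded in 1536-well plates, dosed by pin tool the next day, and fixed and stained after 5 days in one step with final 0.05% Triton X-100, 1% formaldehyde and 1 ug/ml Hoechst. Dosing was a single drug or a fixed anchor-drug dose plus five library-drug doses (not always all listed) in √10 steps, and values are medians of duplicate plates imaged at 4×.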

[2] = compound: C[C@@H](N)c1ccc(C(=O)Nc2ccnc3[nH]ccc23)cc1 + CS(=O)(=O)CCNCc1ccc(-c2ccc3ncnc(Nc4ccc(OCc5cccc(F)c5)c(Cl)c4)c3c2)o1 [Lapatinib] (partner 2 µM)
In short: as §1

[3] = compound: O[C@H]1CC[C@H](Nc2ncc3nc(Nc4c(F)cc(F)cc4F)n([C@H]4CCOC4)c3n2)CC1 [Tanzisertib] + CC1(C)CCC(c2ccc(Cl)cc2)=C(CN2CCN(c3ccc(C(=O)NS(=O)(=O)c4ccc(N[C@H](CCN5CCOCC5)CSc5ccccc5)c(S(=O)(=O)C(F)(F)F)c4)cc3)CC2)C1 [Navitoclax] (partner 0.5 µM)
In short: as §1

[4] = compound: O[C@H]1CC[C@H](Nc2ncc3nc(Nc4c(F)cc(F)cc4F)n([C@H]4CCOC4)c3n2)CC1 [Tanzisertib] + C[C@]1(O)C[C@@H](c2nc(-c3ccc4ccc(-c5ccccc5)nc4c3)c3c(N)nccn32)C1 [Linsitinib] (partner 1 µM)
In short: as §1

Cell Line | relative viability ([1]; first compound 0.08 µM) | relative viability ([1]; first compound 0.8 µM) | relative viability ([1]; first compound 2.53 µM) | relative viability ([1]; first compound 8 µM) | relative viability ([2]; first compound 0.04 µM) | relative viability ([2]; first compound 0.1265 µM) | relative viability ([2]; first compound 0.4 µM) | relative viability ([2]; first compound 4 µM) | relative viability ([3]; first compound 0.08 µM) | relative viability ([3]; first compound 0.253 µM) | relative viability ([3]; first compound 0.8 µM) | relative viability ([3]; first compound 2.53 µM) | relative viability ([3]; first compound 8 µM) | relative viability ([4]; first compound 0.08 µM) | relative viability ([4]; first compound 0.253 µM) | relative viability ([4]; first compound 0.8 µM) | relative viability ([4]; first compound 2.53 µM) | relative viability ([4]; first compound 8 µM) | relative viability ([2]; first compound 1.265 µM)
NCI-H1915 | 1.03 | 0.885 | 0.965 | 0.906 | 0.908 | 0.972 | 0.966 | 0.848 | 0.793 | 0.786 | 0.78 | 0.805 | 0.83 | 1.07 | 1.14 | 1.08 | 1.01 | 1.11 | 
NCI-H2009 | 0.81 | 0.859 | 0.872 | 0.859 | 0.682 | 0.736 | 0.916 | 0.747 | 1.22 | 1.27 | 1.19 | 1.27 | 1.22 | 1.22 | 1.17 | 1.17 | 1.26 | 1.21 | 0.114
ChaGo-K-1 | 0.51 | 0.978 | 0.431 | 0.681 |  |  |  |  | 1.01 | 1.08 | 1.1 | 0.79 | 0.683 |  |  |  |  |  | 
COR-L 105 | 0.421 | 0.429 | 0.398 | 0.396 | 0.305 | 0.355 | 0.376 | 0.364 | 0.88 | 0.789 | 0.728 | 0.819 | 0.683 | 1.13 | 0.78 | 0.895 | 1.12 | 0.77 | 0.257
NCI-H2170 | 0.278 | 0.304 | 0.309 | 0.364 | 0.28 | 0.273 | 0.302 | 0.26 | 0.702 | 0.496 | 0.656 | 0.57 | 0.582 |  |  |  |  |  | 0.323
A549 | 0.509 | 0.654 | 0.575 | 0.548 | 1.1 | 0.895 | 1.06 | 0.53 | 1.3 | 1.08 | 1.26 | 1.1 | 1.3 | 0.736 | 0.551 | 0.703 | 0.623 | 0.533 | 0.924
SW 1573 | 0.516 | 0.533 | 0.496 | 0.509 | 1.3 | 1.14 | 1.18 | 1.08 | 1.02 | 0.994 | 0.974 | 1.05 | 0.909 | 0.968 | 0.85 | 0.703 | 0.753 | 0.672 | 1.04
NCI-H1975 | 0.325 | 0.305 | 0.331 | 0.307 | 0.833 | 0.765 | 0.922 | 0.546 | 1.28 | 1.09 | 1.21 | 1.29 | 1.03 | 1.1 | 0.979 | 0.993 | 1.07 | 0.873 | 0.88
Calu-6 | 0.843 | 1.02 | 0.971 | 0.904 | 1.09 | 1.08 | 1.1 | 0.832 | 0.872 | 0.835 | 0.9 | 0.848 | 0.994 | 1.09 | 0.862 | 0.957 | 1.02 | 0.928 | 0.902
